Columns and labels:
HEK293 cells = experiment: NAD+ measurement in HEK293 cells (NAD+ cycling assay); details: for cellular NAD concentration: 6 hours of incubation, 50-500 μM
Protocol: Cell number were counted using hemocytometer.
After 6 hours of incubation, cells were harvested with Trypsin. A cell count was obtained from each cell suspension by hemacytometer. The cell pellets were used for NAD^+ measurement.
Water-only and nicotinamide riboside (NR) control treatments were run.
HEK cells were plated in 6-well plates until 90% confluent. […] After 6 hours of incubation, cells were harvested with Trypsin. A cell count was obtained from each cell suspension by hemacytometer. The cell pellets were used for NAD^+ measurement.

INS1 cells = experiment: Glucose-induced insulin secretion test in INS1 cells with hydrogen peroxide challenge; type: cell-based; details: 1 mM, 100 μM hydrogen peroxide, 15 mmol/l glucose
Protocol: To induce insulin secretion, INS1 cells were seeded in 6-well plate. The cells were accommodated to low glucose RPMI-1640 media with 5 mmol/1 D-glucose overnight. Insulin secretion was assayed in HEPES balanced salt solution (HESS) (114 mmol/1 NaCl, 4.7 mmol/1 KCl, 1.2 mmol/1 KH2PO4, 1.16 mmol/1 MgSO4, 20 mmol/1 HEPES, 2.5 mmol/1 CaCl2, 25.5 mmol/1 NaHCO3, and 0.2% bovine serum albumin [essentially fatty acid free], pH 7.2). Cells wore washed in 1 ml HESS with 3 mmol/1 glucose followed by a 2 hr preincubation in 2 ml of the same buffer. Insulin secretion was then measured by incubating 1 hr 1 ml of HESS containing the 3 mmol/1 or 15 mmol/1 glucose concentration. The media was then collected for insulin analysis using RayBio™ Rat Insulin ELISA kit according to manufacturer's manual. In hydrogen peroxide challenge, 100 μM hydrogen peroxide were added to media together with 3 mmol/1 glucose containing HESS and incubated for 2 hr before switch to 15 mmol/l glucose containing HBSS for insulin secretion.

[1] = HEK cells, 50 μM, 6 hours, percentages of average NAD^+ as compared to control

Row | Compound | Average NAD^+ (pmoles/10^6 cells) (HEK293 cells; [1]) | cellular NAD concentration (HEK293 cells; HEK cells) | further results
1 | CCCCOC(=O)C1=CN([C@@H]2O[C@H](CO)[C@H](O)[C@@H]2O)C=CC1 [Bu NaR—H, butyl-1-((2R,3S,4R,5R)-3,4-dihydroxy-5-(hydroxymethyl)tetrahydrofuran-2-yl)-1,4-dihydropyridine-3-carboxylate] | 124% |  | 
2 | CCOC(=O)C1=CN([C@@H]2O[C@H](CO)[C@H](O)[C@@H]2O)C=CC1 [Et NaR-H, ethyl-1-((2R,3S,4R,5R)-3,4-dihydroxy-5-(hydroxymethyl)tetrahydrofuran-2-yl)-1,4-dihydropyridine-3-carboxylate] |  | increased | 
3 | CCCCCCCOC(=O)C1=CN([C@@H]2O[C@H](CO)[C@H](O)[C@@H]2O)C=CC1 [Hep NaR—H, heptyl-1-((2R,3S,4R,5R)-3,4-dihydroxy-5-(hydroxymethyl)tetrahydrofuran-2-yl)-1,4-dihydropyridine-3-carboxylate] | 124% |  | 
4 | NC(=O)c1ccc[n+]([C@@H]2O[C@H](CO)[C@@H](O)[C@H]2O)c1 [NR, nicotinamide riboside] |  |  | insulin secretion level under hydrogen peroxide (INS1 cells): restored the insulin secretion level back to a similar extent as untreated control; increase in NAD^+ (HEK293 cells; HEK293, 1000 mM as printed (1 mM elsewhere in the source)): 148%; Average NAD^+ (pmoles/10^6 cells) (HEK293 cells; HEK293, 1000 mM as printed in table (1 mM elsewhere in the source), compared to control): 148%
5 | CCCCCCCCOC(=O)C1=CN([C@@H]2O[C@H](CO)[C@H](O)[C@@H]2O)C=CC1 [Oct NaR—H, octyl-1-((2R,3S,4R,5R)-3,4-dihydroxy-5-(hydroxymethyl)tetrahydrofuran-2-yl)-1,4-dihydropyridine-3-carboxylate] | 112% |  | 
6 | CCCOC(=O)C1=CN([C@@H]2O[C@H](CO)[C@H](O)[C@@H]2O)C=CC1 [Pr NaR-H, propyl-1-((2R,3S,4R,5R)-3,4-dihydroxy-5-(hydroxymethyl)tetrahydrofuran-2-yl)-1,4-dihydropyridine-3-carboxylate] |  | increased | 
